# Assay results from patent publication US5559115A, “Oncogene function-inhibitory agent, method for inhibiting oncogene function, and treatment of cancer” (Terumo Kabushiki Kaisha, priority 1993, dated 1996).
# Counter-ions that a name gives are not always drawn.
# Tests used:
# K-ras^ts-NRK cells = assay: Action mechanism: morphology / M phase observation in K-ras^ts-NRK cells; assay type: cell-based, rat; conditions: 33° C., 0.1 μg/ml, after one day
# Experimental: Before the addition of the III-121C, the cells grew atop the other and had projections or processes on their surface (FIG. 9(a)).
# The procedure as described above was repeated by replacing the III-121C with 0.1 μg/ml of vinblastine, 0.1 μg/ml of vincristine and 0.1 μg/ml of colchicine, which are known as microtubule formation inhibitors.
# K-ras-NRK cells = assay: Action mechanism: flow-cytometric DNA content analysis of K-ras-NRK cells; assay type: cell-based, rat; conditions: 24 hours; III-121C 0.3 and 1 μg/ml, vinblastine 0.1 μg/ml (FIG. 11)
# Experimental: FIGS. 11(a) to (d) are graphs showing the results of flow-cytometric analysis wherein the number of cells is depicted in relation to their DNA content, upon addition of no reagent (FIG. 11(a)), 0.3 μg/ml of III-121C (FIG. 11(b)), 1 μg/ml of III-121C (FIG. 11(c)), and 0.1 μg/ml of vinblastine (FIG. 11(d)) to the K-ras NRK cell culture.
# To the cells of K-ras-NRK in their propagation was added either one of III-121C and vinblastine. No reagent was added to the control cells. After 24 hours from the addition, the cells were fractionated with a cell sorter to examine the DNA quantity in relation to the number of the cells.
# Ras protein = conditions: cited from earlier work
# [1] = Acute toxicity (LD50) on mouse upon intravenous injection; assay type: in vivo; conditions: in vivo, intravenous injection
# Experimental: Toxicity (LD50) on mouse of III-121C upon intravenous injection was measured.
Compound,number of circular or elongated cells in M phase (K-ras^ts-NRK cells),LD50 [1] [mg/kg],other results
"CC[C@]1(O)C[C@@H]2CN(CCc3c([nH]c4ccccc34)[C@@](C(=O)OC)(c3cc4c(cc3OC)N(C)[C@H]3[C@@](O)(C(=O)OC)[C@H](OC(C)=O)[C@]5(CC)C=CCN6CC[C@]43[C@@H]65)C2)C1 [vinblastine, reference compound]",a significant increase in the number of circular or elongated cells that are in their M phase of the cell cycle,–,cell cycle / cell division inhibition (K-ras-NRK cells): inhibition of G2 /M phase in the cell cycle; distribution of DNA quantity in cells (K-ras-NRK cells): an increase in the number of cells having a relatively large quantity of DNA was observed
Nc1nc2c(ncn2[C@@H]2O[C@H](CO)[C@@H](O)[C@H]2O)c(=O)o1 [oxanosin],–,–,inhibition of the action of the ras oncogene product (Ras protein) (Ras protein): capable of inhibiting the action of the ras oncogene product
"CC[C@]1(O)C[C@H]2CN(CCc3c([nH]c4ccccc34)[C@@](C(=O)OC)(c3cc4c(cc3OC)N(C=O)[C@H]3[C@@](O)(C(=O)OC)[C@H](OC(C)=O)[C@]5(CC)C=CCN6CC[C@]43[C@@H]65)C2)C1 [vincristine sulfate, reference compound]",–,2.5,–
"CC[C@]1(O)C[C@@H]2CN(CCc3c([nH]c4ccccc34)[C@@](C(=O)OC)(c3cc4c(cc3OC)N(C)[C@H]3[C@@](O)(C(N)=O)[C@H](O)[C@]5(CC)C=CCN6CC[C@]43[C@@H]65)C2)C1 [vindecine sulfate, reference compound]",–,9.1,–
CC[C@H](C)C(=O)O[C@H]1CCC=C2C=C[C@H](C)[C@H](CC[C@@H]3C[C@@H](O)CC(=O)O3)[C@H]21 [compactin],–,–,inhibition of the action of the ras oncogene product (Ras protein) (Ras protein): capable of inhibiting the action of the ras oncogene product
"COc1cc2c(c(OC)c1OC)-c1ccc(OC)c(=O)cc1[C@@H](NC(C)=O)CC2 [colchicine, reference compound]",a significant increase in the number of circular or elongated cells that are in their M phase of the cell cycle,–,–
"CC[C@]1(O)C[C@@H]2CN(CCc3c([nH]c4ccccc34)[C@@](C(=O)OC)(c3cc4c(cc3OC)N(C)[C@H]3[C@@](O)(C(=O)OC)[C@H](OC(C)=O)[C@]5(CC)C=CCN6CC[C@]43[C@@H]65)C2)C1 [vinblastine sulfate, reference compound]",–,15.2,–
"CC[C@]1(O)C[C@H]2CN(CCc3c([nH]c4ccccc34)[C@@](C(=O)OC)(c3cc4c(cc3OC)N(C=O)[C@H]3[C@@](O)(C(=O)OC)[C@H](OC(C)=O)[C@]5(CC)C=CCN6CC[C@]43[C@@H]65)C2)C1 [vincristine, reference compound]",a significant increase in the number of circular or elongated cells that are in their M phase of the cell cycle,–,–
